{"source": "patent US20250387437A1", "about": "“PHARMACEUTICAL COMPOSITION FOR PREVENTING OR TREATING ALOPECIA INCLUDING AKKERMANSIA” (priority 2022, published 2025)", "key": {"[1]": {"test_system": "alopecia-induced mice (testosterone)", "test": "Confirmation of mouse hair growth through photograph", "format": "in vivo", "conditions": "testosterone 0.5 mg/day s.c. alopecia model, male C57BL/6 mice, daily treatment for 5 weeks, FIG. 1", "description": "The animal experiment was carried out in compliance with the Animal use and Care Protocol of the Institutional Animal Care and Use Committee (IACUC). Seven-week-old male C57BL/6 mice were purchased and acclimated for 1 week, and then bred for 5 weeks. Regarding the breeding environment, the mice were bred at a constant temperature (22° C.) and relative humidity (40% to 60%) with a 12-hr light/12-hr dark cycle. A chow diet was fed to all experimental groups.\nIn order to make an alopecia model, 0.5 mg/day of testosterone was subcutaneously injected to mice in all experimental groups. A group in which alopecia was induced by testosterone administration was used as a negative control group, and finasteride was orally administered at 0.5 mg/kg/day as a positive control group. In the groups in which live bacteria and killed bacteria of the genus Akkermansia of the present invention are administrated, PBS containing L-cysteine and glycerol was orally administered as a vehicle.\nFor the mice in each experimental group, the degree of hair growth was observed through photographing hair. […] From the left side, there are the results of the negative control group (Testosterone), the positive control group (T+Finasteride), the Akkermansia muciniphila live bacteria-administered group (T+EB-AMDK19), and the Akkermansia muciniphila killed bacteria-administered group (T+EB-AMDK19 HI). […]"}, "[2]": {"test_system": "alopecia-induced mice (testosterone)", "test": "Hair growth length increase effect", "format": "in vivo, C57BL/6 mice", "conditions": "after the 5-week experiment, average per group, FIGS. 2a-b", "description": "The animal experiment was carried out in compliance with the Animal use and Care Protocol of the Institutional Animal Care and Use Committee (IACUC). Seven-week-old male C57BL/6 mice were purchased and acclimated for 1 week, and then bred for 5 weeks. Regarding the breeding environment, the mice were bred at a constant temperature (22° C.) and relative humidity (40% to 60%) with a 12-hr light/12-hr dark cycle. A chow diet was fed to all experimental groups. […] In order to make an alopecia model, 0.5 mg/day of testosterone was subcutaneously injected to mice in all experimental groups. A group in which alopecia was induced by testosterone administration was used as a negative control group, and finasteride was orally administered at 0.5 mg/kg/day as a positive control group. In the groups in which live bacteria and killed bacteria of the genus Akkermansia of the present invention are administrated, PBS containing L-cysteine and glycerol was orally administered as a vehicle. [table] After the 5-week experiment was completed, the hair length was measured for individuals in each experimental group to calculate an average value, and the results of the hair growth length increase effect experiment are shown as a graph in FIG. 2."}, "[3]": {"test_system": "hair follicles of alopecia-induced C57BL/6 mice", "test": "Histological change in mouse hair follicles (hematoxylin-eosin staining)", "format": "in vivo", "conditions": "skin tissue collected at week 5, H&E, optical microscope, FIGS. 5a-b", "description": "The animal experiment was carried out in compliance with the Animal use and Care Protocol of the Institutional Animal Care and Use Committee (IACUC). Seven-week-old male C57BL/6 mice were purchased and acclimated for 1 week, and then bred for 5 weeks. Regarding the breeding environment, the mice were bred at a constant temperature (22° C.) and relative humidity (40% to 60%) with a 12-hr light/12-hr dark cycle. A chow diet was fed to all experimental groups. […] In order to make an alopecia model, 0.5 mg/day of testosterone was subcutaneously injected to mice in all experimental groups. A group in which alopecia was induced by testosterone administration was used as a negative control group, and finasteride was orally administered at 0.5 mg/kg/day as a positive control group. In the groups in which live bacteria and killed bacteria of the genus Akkermansia of the present invention are administrated, PBS containing L-cysteine and glycerol was orally administered as a vehicle. [table] In order to confirm the morphological change of male C57BL/6 mouse hair follicles, skin tissues collected at week 5 after […] administration were stained with hematoxylin-eosin and observed with an optical microscope to confirm the number of hair follicles, and the results are shown in FIGS. 5a and 5b."}}}
{"smiles": "CC(C)(C)NC(=O)[C@H]1CC[C@H]2[C@@H]3CC[C@H]4NC(=O)C=C[C@]4(C)[C@H]3CC[C@]12C", "note": "[finasteride]", "values": [{"measurement": "hair growth / regrowth in hair loss regions (photograph)", "setting": "[1]", "value": "almost all regions thereof were changed to black at week 5"}, {"measurement": "skin color change in hair loss regions of the back (photograph)", "setting": "[1]", "value": "skin color was darkened from week 3 of treatment"}, {"measurement": "hair length, comparison between treated groups", "setting": "[2]", "value": "showed similar patterns"}, {"measurement": "number of telogen hair follicles compared to the negative control group", "setting": "[3]", "value": "increased"}]}
